Results: patent US9617212B2, “Isoindolin-1-ones as macrophage migration inhibitory factor (MIF) inhibitors” (Controlled Chemicals, Inc., priority 2013, dated 2017)
Read-outs that look alike come from different tables or passages of the source.

Biological target: T1, Human MIF (MIF tautomerase) (Homo sapiens, UniProt P14174)
T1 construct: purchased ProSpec
T1 sequence (P14174 2-115 limits assumed): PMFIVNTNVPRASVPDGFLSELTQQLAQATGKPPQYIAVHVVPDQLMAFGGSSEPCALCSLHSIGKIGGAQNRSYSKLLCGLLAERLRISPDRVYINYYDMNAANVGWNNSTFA
Experiment: MIF Tautomerase Inhibitory Assay with L-Dopachrome Methyl Ester
Assay type: biochemical
Settings: MIF tautomerase inhibition, L-dopachrome methyl ester substrate, pH 7.34, no pre-incubation
Protocol: MIF Tautomerase Inhibitory Assay with L-Dopachrome Methyl Ester
Assay Method (pH 7.34, 0.017-0.033% DMSO, 0.034% EtOH): A fresh stock solution of L-dopachrome methyl ester in MeOH was prepared at 55-65 mM through oxidation of L-3,4-dihydroxyphenylalanine methyl ester hydrochloride with sodium periodate according to the procedure described in WO9729635A1. MeOH was removed from 0.5 mL of the L-dopachrome methyl ester/MeOH solution (55-65 mM) under a stream of argon and the residue taken up in appropriate amount of water to prepare a substrate solution (7-10 mM). Active Human MIF (from ProSpec) ([…]) was dissolved in 675 μL 0.1% bovine serum albumin (BSA) in water, and the resultant MIF solution (1 volume) mixed with 55 volumes of Na2HPO4 buffer (50 mM, pH 7.34) to form a 265 ng/mL MIF working solution. MIF working solution (280 μL) or a no-MIF working solution (prepared by mixing 0.1% BSA (1 volume) with the aforementioned Na2HPO4 buffer (55 volumes)) was transferred to wells in a column of 8 wells on a 96-well plate in a Plate Reader (SPECTRAmax Plus 384, Molecular Devices), and 5 μL of H2O/DMSO (99/1) containing no inhibitor or an inhibitor (whose concentration was verified by HPLC). Without pre-mixing or pre-incubation, 10 μL freshly prepared L-dopachrome methyl ester/H2O solution (7-10 mM) was added to each well with a multi-pipet. The assay samples were mixed immediately by sucking up and expelling the contents of the wells three times with a multi-pipet. The absorbance (A1) at 475 nm was then recorded for each sample every 2 s for 3 min. After 5-6 min, the samples were monitored again for 3 min with a reading every two seconds at 475 nm (A2). It can be shown that when [substrate]<<Km, plots of Ln(A1−A2) versus time are linear with slopes m (Eq 1). IC50 values were estimated from Eq 2-5, the inhibitor concentration [I] in the assay mixture and values of m in the presence (mi), absence (mo) of the inhibitor, the value of m observed for the non-MIF blank (mn), the MIF concentration (e), and the specificity constant for the MIF catalyzed reaction (kcat/Km). Ln(A1−A2)=−mt (Eq 1) F=(mi−mn)/(mo−mn) (Eq 2) Wherein mo−mn=ekcat/Km (Eq 3) and mi−mn=(ekcat/Km)[…] (Eq 4) IC50=[I]F/(1−F) (Eq 5)
The compounds listed in Table 1, provided herein, were prepared via procedures identical or similar to those described in the Examples 1-85. The listed compounds were >95% pure by HPLC. Each listed compound yielded a mass spectrum consistent with its structure. Concentrations of MIF tautomerase inhibitors used in the assay were verified by HPLC and the extinction coefficients of the inhibitors. The designated relative potency of MIF tautomerase inhibitors is based on the IC50 as determined by the method described in Biochemical Assay as follows: A, IC50<1 μM; B, 1 μM≦IC50<5 μM; C, 5 μM≦IC50<10 μM; D, 10 μM≦IC50<50 μM; E, 50 μM≦IC50<200 μM.

[1] = relative potency class, read-out: IC50

SMILES | IC50 [1] | IC50 (IC50, relative potency class)
CC(Oc1cccc(OCCN)c1)[C@H]1CC[C@H](CN2Cc3ccc(O)c(F)c3C2=O)CC1 (stereo partly drawn) | < 1000 nM | –
CC(=O)N(C)CCOc1cccc(OC[C@H]2CC[C@H](CN3Cc4ccc(O)c(F)c4C3=O)CC2)c1 | < 1000 nM | –
CC(=O)N(C)CCOc1cccc(OC(C)[C@H]2CC[C@H](CN3Cc4ccc(O)c(F)c4C3=O)CC2)c1 (stereo partly drawn) | < 1000 nM | –
CC(Oc1cccc(OC[C@H](N)C(=O)O)c1)[C@H]1CC[C@H](CN2Cc3ccc(O)c(F)c3C2=O)CC1 (stereo partly drawn) | < 1000 nM | –
N[C@@H](COc1cccc(OC[C@H]2CC[C@H](CN3Cc4ccc(O)c(F)c4C3=O)CC2)c1)C(=O)O | < 1000 nM | –
CC(=O)N[C@@H](COc1cccc(OC[C@H]2CC[C@H](CN3Cc4ccc(O)c(F)c4C3=O)CC2)c1)C(=O)O | < 1000 nM | –
CC(=O)N[C@@H](COc1cccc(OC(C)[C@H]2CC[C@H](CN3Cc4ccc(O)c(F)c4C3=O)CC2)c1)C(=O)O (stereo partly drawn) | < 1000 nM | –
CC(OC(=O)Cc1ccccc1)[C@H]1CC[C@H](CN2Cc3cc(F)c(O)cc3C2=O)CC1 (stereo partly drawn) | – | < 1000 nM
O=C1c2cc(O)ccc2CN1C[C@H]1CC[C@H](C(O)C2CCCCC2)CC1 (stereo partly drawn) | < 1000 nM | –
O=C1c2cc(O)ccc2CN1C[C@H]1CC[C@H](C(O)CC2CCCCC2)CC1 (stereo partly drawn) | < 1000 nM | –
CC(C)(O)[C@H]1CC[C@H](CN2Cc3ccc(O)c(F)c3C2=O)CC1 | < 1000 nM | –
CC(C)(O)[C@H]1CC[C@H](CN2Cc3ccc(O)cc3C2=O)CC1 | < 1000 nM | –
CC(O)[C@H]1CC[C@H](CN2Cc3cc(F)c(O)c(F)c3C2=O)CC1 (stereo partly drawn) | < 1000 nM | –
CCC(O)[C@H]1CC[C@H](CN2Cc3ccc(O)c(F)c3C2=O)CC1 (stereo partly drawn) | < 1000 nM | –
C[C@@H](O)[C@H]1CC[C@H](CN2Cc3ccc(O)c(F)c3C2=O)CC1 | < 1000 nM | –
C[C@H](O)[C@H]1CC[C@H](CN2Cc3ccc(O)c(F)c3C2=O)CC1 | < 1000 nM | –
CC(O)[C@H]1CC[C@H](CN2Cc3cc(F)c(O)cc3C2=O)CC1 (stereo partly drawn) | < 1000 nM | –
CC(O)[C@H]1CC[C@H](CN2Cc3ccc(O)c(F)c3C2=O)CC1 (stereo partly drawn) | < 1000 nM | –
O=C1c2c(ccc(O)c2F)CN1C[C@H]1CC[C@H](CO)CC1 | < 1000 nM | –
CC(O)[C@H]1CC[C@H](CN2Cc3ccc(O)cc3C2=O)CC1 (stereo partly drawn) | < 1000 nM | –
CC(=O)[C@H]1CC[C@H](CN2Cc3ccc(O)c(F)c3C2=O)CC1 | < 1000 nM | –
COC(=O)[C@@H](CO)NC(C)C1CCC(CN2Cc3ccc(O)c(F)c3C2=O)CC1 (stereo partly drawn) | < 1000 nM | –
CC(N[C@H](CO)C(=O)O)C1CCC(CN2Cc3ccc(O)c(F)c3C2=O)CC1 (stereo partly drawn) | < 1000 nM | –

SMILES | IC50 [1] | IC50 (IC50, relative potency class)
COC(=O)[C@H](NC(C)C1CCC(CN2Cc3ccc(O)c(F)c3C2=O)CC1)C(C)C (stereo partly drawn) | < 1000 nM | –
CC(N[C@@H](C(=O)O)C(C)C)C1CCC(CN2Cc3ccc(O)c(F)c3C2=O)CC1 (stereo partly drawn) | < 1000 nM | –
COC(=O)[C@H](C)NC(C)C1CCC(CN2Cc3ccc(O)c(F)c3C2=O)CC1 (stereo partly drawn) | < 1000 nM | –
CC(N[C@H](C)C(=O)O)C1CCC(CN2Cc3ccc(O)c(F)c3C2=O)CC1 (stereo partly drawn) | < 1000 nM | –
CC(N[C@@H](C)C(=O)O)C1CCC(CN2Cc3ccc(O)c(F)c3C2=O)CC1 (stereo partly drawn) | < 1000 nM | –
COC(=O)CCNC(C)C1CCC(CN2Cc3ccc(O)c(F)c3C2=O)CC1 (stereo not drawn) | < 1000 nM | –
CC(NCCC(=O)O)C1CCC(CN2Cc3ccc(O)c(F)c3C2=O)CC1 (stereo not drawn) | < 1000 nM | –
CNC(=O)CCNC(C)C1CCC(CN2Cc3ccc(O)c(F)c3C2=O)CC1 (stereo not drawn) | < 1000 nM | –
CC(NCC(=O)O)[C@H]1CC[C@H](CN2Cc3ccc(O)c(F)c3C2=O)CC1 (stereo partly drawn) | < 1000 nM | –
CC(NCC(N)=O)[C@H]1CC[C@H](CN2Cc3ccc(O)c(F)c3C2=O)CC1 (stereo partly drawn) | < 1000 nM | –
CC(NC(CO)CO)C1CCC(CN2Cc3ccc(O)c(F)c3C2=O)CC1 (stereo not drawn) | < 1000 nM | –
CC([C@H]1CC[C@H](CN2Cc3ccc(O)c(F)c3C2=O)CC1)N1CCOCC1 (stereo partly drawn) | < 1000 nM | –
CC([C@H]1CC[C@H](CN2Cc3ccc(O)cc3C2=O)CC1)N1CCOCC1 (stereo partly drawn) | < 1000 nM | –
CC(NCCO)C1CCC(CN2Cc3ccc(O)c(F)c3C2=O)CC1 (stereo not drawn) | < 1000 nM | –
CC(C)NC(C)[C@H]1CC[C@H](CN2Cc3cc(F)c(O)c(F)c3C2=O)CC1 (stereo partly drawn) | < 1000 nM | –
CC(=O)NC(C)[C@H]1CC[C@H](CN2Cc3ccc(O)c(F)c3C2=O)CC1 (stereo partly drawn) | < 1000 nM | –
CC(=O)NC[C@H]1CC[C@H](CN2Cc3ccc(O)c(F)c3C2=O)CC1 | < 1000 nM | –
CC(C)(N)[C@H]1CC[C@H](CN2Cc3ccc(O)c(F)c3C2=O)CC1 | < 1000 nM | –
CC(N)[C@H]1CC[C@H](CN2Cc3ccc(O)c(F)c3C2=O)CC1 (stereo partly drawn) | < 1000 nM | –
O=C1OCc2c(OC[C@H]3CC[C@H](CN4Cc5ccc(O)cc5C4=O)CC3)cccc21 | 1000 to 5000 nM | –
O=C1OCc2cc(OC[C@H]3CC[C@H](CN4Cc5ccc(O)cc5C4=O)CC3)ccc21 | 1000 to 5000 nM | –
O=C1c2cc(O)ccc2CN1C[C@H]1CC[C@H](COc2cc(O)cc(F)c2)CC1 | 1000 to 5000 nM | –
COc1cccc(OC(CCC2CCCCC2)[C@H]2CC[C@H](CN3Cc4ccc(O)cc4C3=O)CC2)c1 (stereo partly drawn) | 1000 to 5000 nM | –

SMILES | IC50 [1] | IC50 (IC50, relative potency class)
O=C(OC1CCCCC1)c1ccc(CCN2Cc3ccc(O)cc3C2=O)cc1 | 1000 to 5000 nM | –
O=C1c2cc(O)ccc2CN1C[C@H]1CC[C@H](C(=O)OC2CCCCC2)CC1 | 1000 to 5000 nM | –
O=C1c2cc(O)ccc2CN1C[C@H]1CC[C@H](COC2CCCCC2)CC1 | 1000 to 5000 nM | –
CCC(C)OC(=O)[C@H]1CC[C@H](CN2Cc3ccc(O)cc3C2=O)CC1 (stereo partly drawn) | 1000 to 5000 nM | –
CN(C)C(=O)[C@H]1CC[C@H](CN2Cc3ccc(O)cc3C2=O)CC1 | 1000 to 5000 nM | –
CNC(=O)[C@H]1CC[C@H](CN2Cc3ccc(O)cc3C2=O)CC1 | 1000 to 5000 nM | –
COC(C)[C@H]1CC[C@H](CN2Cc3ccc(O)c(F)c3C2=O)CC1 (stereo partly drawn) | 1000 to 5000 nM | –
O=C1c2cc(O)ccc2CN1CCc1cccc(O)c1 | 1000 to 5000 nM | –
O=C1c2cc(O)ccc2CN1C[C@H]1CC[C@H](CO)CC1 | 1000 to 5000 nM | –
O=C1c2cc(O)ccc2CN1CC1CCC(O)CC1 (stereo not drawn) | 1000 to 5000 nM | –
O=C1c2cc(O)ccc2CN1C[C@H]1CC[C@H](CN2CCOCC2)CC1 | 1000 to 5000 nM | –
CC(C)CNC(C)[C@H]1CC[C@H](CN2Cc3ccc(O)cc3C2=O)CC1 (stereo partly drawn) | 1000 to 5000 nM | –
CC(C)NC(C)[C@H]1CC[C@H](CN2Cc3ccc(O)cc3C2=O)CC1 (stereo partly drawn) | 1000 to 5000 nM | –
CCCNC(C)[C@H]1CC[C@H](CN2Cc3ccc(O)cc3C2=O)CC1 (stereo partly drawn) | 1000 to 5000 nM | –
O=C1c2cc(O)ccc2CN1C[C@H]1CC[C@H](C(=O)N2CCOCC2)CC1 | 1000 to 5000 nM | –
CC(N)[C@H]1CC[C@H](CN2Cc3cc(Cl)c(O)c(F)c3C2=O)CC1 (stereo partly drawn) | 1000 to 5000 nM | –
CC(N)[C@H]1CC[C@H](CN2Cc3cc(F)c(O)c(F)c3C2=O)CC1 (stereo partly drawn) | 1000 to 5000 nM | –
CC(N)[C@H]1CC[C@H](CN2Cc3ccc(O)cc3C2=O)CC1 (stereo partly drawn) | 1000 to 5000 nM | –
NC[C@H]1CC[C@H](CN2Cc3ccc(O)c(F)c3C2=O)CC1 | 1000 to 5000 nM | –
O=C1c2cc(O)ccc2CN1CC1CCCCCC1 | 1000 to 5000 nM | –
O=C1c2cc(O)ccc2CN1CC1CCCCC1 | 1000 to 5000 nM | –
CC1CCC(N2Cc3ccc(O)cc3C2=O)CC1 (stereo not drawn) | 1000 to 5000 nM | –
COC(=O)CCCCN1Cc2ccc(O)cc2C1=O | 1000 to 5000 nM | –
